From patent publication US10004701B2, “Methods and compositions for treating infection” (UNIVERSITY OF ROCHESTER, priority 2012, dated 2018) come the findings set out here.

Each structure is given as a SMILES string. Counter-ions that a name gives are not always drawn. Like-named read-outs stand apart in the source and are kept apart here.

Experiment in all cases: AK assay 384-well format, Prestwick library screening
Assay [1] has as its system E. coli. The assay is classed as cell-based, Escherichia coli. Particulars: for fold induction at 50 µM: Escherichia coli, 3 h.
In assay [2] the test system is E. faecium. The assay is classed as cell-based, Enterococcus faecium. Particulars: for fold induction at 50 µM: Enterococcus faecium, 3 h.
Assay [3] deals with S. aureus strain USA300-0114. The class given is cell-based, Staphylococcus aureus. Particulars: for fold induction at 50 µM: Staphylococcus aureus, USA300, 3 h.
In assay [4] the test system is E. cloacae. The class given is cell-based, Enterobacter cloacae. Particulars: for fold induction at 50 µM: Enterobacter cloacae, 3 h.
In assay [5] the test system is K. pneumoniae. The assay is classed as cell-based, Klebsiella pneumoniae. Particulars: for fold induction at 50 µM: Klebsiella pneumoniae, 3 h.
The test system of assay [6] is P. aeruginosa. The assay is classed as cell-based, Pseudomonas aeruginosa. Particulars: for fold induction at 50 µM: Pseudomonas aeruginosa, 3 h.
Assay [7] deals with A. baumannii strain 98-37-09. The class given is cell-based, Acinetobacter baumannii. Particulars: for fold induction at 50 µM: Acinetobacter baumannii, 983709, 3 h.
[8] abbreviates: planktonic E. coli, 50 μM final drug concentration, 384-well, cutoff for positive-scoring molecules 3-fold increase, read-out: AK-based Prestwick Library Screening Results: E. coli (increase in extracellular AK activity).
[9] abbreviates: planktonic E. faecium, 50 μM final drug concentration, 384-well, cutoff for positive-scoring molecules 3-fold increase, read-out: AK-based Prestwick Library Screening Results: E. faecium (increase in extracellular AK activity).
The mark [10] stands for this setting: planktonic S. aureus, 50 μM final drug concentration, 384-well, cutoff for positive-scoring molecules 3-fold increase, read-out: AK-based Prestwick Library Screening Results: S. aureus (increase in extracellular AK activity).
The mark [11] stands for this setting: planktonic E. cloacae, 50 μM final drug concentration, 384-well, cutoff for positive-scoring molecules 3-fold increase, read-out: AK-based Prestwick Library Screening Results: E. cloacae (increase in extracellular AK activity).
[12] abbreviates: planktonic K. pneumoniae, 50 μM final drug concentration, 384-well, cutoff for positive-scoring molecules 3-fold increase, read-out: AK-based Prestwick Library Screening Results: K. pneumoniae (increase in extracellular AK activity).
Where [13] appears, read: planktonic P. aeruginosa, 50 μM final drug concentration, 384-well, cutoff for positive-scoring molecules 3-fold increase, read-out: AK-based Prestwick Library Screening Results: P. aeruginosa (increase in extracellular AK activity).
Setting [14] is: planktonic A. baumannii, 50 μM final drug concentration, 384-well, cutoff for positive-scoring molecules 3-fold increase, read-out: AK-based Prestwick Library Screening Results: A. baumannii (increase in extracellular AK activity).
The mark [15] stands for this setting: 50 μM final drug concentration, planktonic, […].

`CC(=O)NC(CC(=O)O)C(=O)O` (racemic) [Aspartic acid, N-acetyl (R,S)]: the “AK-based Prestwick Library Screening Results, E. coli (increase in extracellular AK activity)” value in assay [1] (planktonic E. coli, 50 μM final drug concentration, cutoff for positive-scoring molecules 3-fold increase) came to 0.6. The “AK-based Prestwick Library Screening Results, E. faecium (increase in extracellular AK activity)” value in assay [2] (planktonic E. faecium, 50 μM final drug concentration, cutoff for positive-scoring molecules 3-fold increase) is 0.9. Moreover, in assay [3] (planktonic S. aureus, 50 μM final drug concentration, cutoff for positive-scoring molecules 3-fold increase), the “AK-based Prestwick Library Screening Results, S. aureus (increase in extracellular AK activity)” value was 0.5. Besides, the “AK-based Prestwick Library Screening Results, E. cloacae (increase in extracellular AK activity)” value in assay [4] (planktonic E. cloacae, 50 μM final drug concentration, cutoff for positive-scoring molecules 3-fold increase) is 0.7. In assay [5] (planktonic K. pneumoniae, 50 μM final drug concentration, cutoff for positive-scoring molecules 3-fold increase), the “AK-based Prestwick Library Screening Results, K. pneumoniae (increase in extracellular AK activity)” value is 0.5. Besides, the “AK-based Prestwick Library Screening Results, P. aeruginosa (increase in extracellular AK activity)” value in assay [6] (planktonic P. aeruginosa, 50 μM final drug concentration, cutoff for positive-scoring molecules 3-fold increase) was 0.6. Also, the “AK-based Prestwick Library Screening Results, A. baumannii (increase in extracellular AK activity)” value in assay [7] (planktonic A. baumannii, 50 μM final drug concentration, cutoff for positive-scoring molecules 3-fold increase) is recorded as 0.6.

Turning to `CC(=C(CCO)SSCC1CCCO1)N(C=O)Cc1cnc(C)nc1N` (stereo in doubt) [Fursultiamine Hydrochloride], the fold induction at 50 µM in assay [1] (read-out: AK-based Prestwick library screening result, E. coli (fold increase in extracellular AK activity)) is 1.4; in assay [2] (read-out: AK-based Prestwick library screening result, E. faecium (fold increase in extracellular AK activity)), 1.1; in assay [3] (read-out: AK-based Prestwick library screening result, S. aureus (fold increase in extracellular AK activity)), 1; in assay [4] (read-out: AK-based Prestwick library screening result, E. cloacae (fold increase in extracellular AK activity)), 1.2; in assay [5] (read-out: AK-based Prestwick library screening result, K. pneumoniae (fold increase in extracellular AK activity)) it was 1; in assay [6] (read-out: AK-based Prestwick library screening result, P. aeruginosa (fold increase in extracellular AK activity)), 1.1. For the same molecule, the fold induction at 50 µM in assay [7] (read-out: AK-based Prestwick library screening result, A. baumannii (fold increase in extracellular AK activity)) amounted to 1.3.

As for `CCCc1cc(=O)[nH]c(=S)[nH]1` [Propylthiouracil], the fold induction at 50 µM in assay [1] (planktonic E. coli, 50 μM final drug concentration, cutoff for positive-scoring molecules 3-fold increase, read-out: AK-based Prestwick Library Screening Results, E. coli (increase in extracellular AK activity)) came out at 0.7; in assay [2] (planktonic E. faecium, 50 μM final drug concentration, cutoff for positive-scoring molecules 3-fold increase, read-out: AK-based Prestwick Library Screening Results, E. faecium (increase in extracellular AK activity)), 1; in assay [3] (planktonic S. aureus, 50 μM final drug concentration, cutoff for positive-scoring molecules 3-fold increase, read-out: AK-based Prestwick Library Screening Results, S. aureus (increase in extracellular AK activity)) it was 0.7; in assay [4] (planktonic E. cloacae, 50 μM final drug concentration, cutoff for positive-scoring molecules 3-fold increase, read-out: AK-based Prestwick Library Screening Results, E. cloacae (increase in extracellular AK activity)), 1.1; in assay [5] (planktonic K. pneumoniae, 50 μM final drug concentration, cutoff for positive-scoring molecules 3-fold increase, read-out: AK-based Prestwick Library Screening Results, K. pneumoniae (increase in extracellular AK activity)), 0.6; in assay [6] (planktonic P. aeruginosa, 50 μM final drug concentration, cutoff for positive-scoring molecules 3-fold increase, read-out: AK-based Prestwick Library Screening Results, P. aeruginosa (increase in extracellular AK activity)) it was 0.7. Besides, the fold induction at 50 µM in assay [7] (planktonic A. baumannii, 50 μM final drug concentration, cutoff for positive-scoring molecules 3-fold increase, read-out: AK-based Prestwick Library Screening Results, A. baumannii (increase in extracellular AK activity)) stood at 0.8.

For the molecule `CC(C)[C@@]1(NC(=O)[C@@H]2C[C@@H]3c4cccc5[nH]cc(c45)C[C@H]3N(C)C2)O[C@@]2(O)[C@@H]3CCCN3C(=O)[C@H](Cc3ccccc3)N2C1=O` [Dihydroergocristine mesylate], the fold induction at 50 µM in assay [1] (setting [8]) came out at 0.7; in assay [2] (setting [9]) it was 0.9; in assay [3] (setting [10]) it was 0.5; in assay [4] (setting [11]) it was 0.6; in assay [5] (setting [12]) it was 0.6; in assay [6] (setting [13]), 0.6. The fold induction at 50 µM in assay [7] (setting [14]) came to 0.7.

With `c1ccc(CC2=NCCN2)cc1` [Tolazoline hydrochloride], the fold induction at 50 µM in assay [1] (setting [8]) is 1.4; in assay [2] (setting [9]) it was 1; in assay [3] (setting [10]), 1.2; in assay [4] (setting [11]), 1.5; in assay [5] (setting [12]), 1; in assay [6] (setting [13]) it was 1.1. For the same molecule, the fold induction at 50 µM in assay [7] (setting [14]) worked out at 1.3.

For the molecule `CC[N+]1(C)[C@@H]2CC[C@H]1CC(OC(=O)[C@@H]1CC[C@@](C(=O)OC3C[C@H]4CC[C@@H](C3)[N+]4(C)CC)(c3ccccc3)c3ccccc31)C2.[Cl-].[Cl-]` (stereo partly drawn) [beta-Belladonnine dichloroethylate], the “AK-based Prestwick Library Screening Results, E. coli (fold increase in extracellular AK activity)” value in assay [1] (setting [15]) turned out to be 1.2. The “AK-based Prestwick Library Screening Results, E. faecium (fold increase in extracellular AK activity)” value in assay [2] (setting [15]) stood at 1.0. Also, the “AK-based Prestwick Library Screening Results, S. aureus (fold increase in extracellular AK activity)” value in assay [3] (setting [15]) was found to be 1.3. For the same molecule, the “AK-based Prestwick Library Screening Results, E. cloacae (fold increase in extracellular AK activity)” value in assay [4] (setting [15]) stood at 1.3. Moreover, the “AK-based Prestwick Library Screening Results, K. pneumoniae (fold increase in extracellular AK activity)” value in assay [5] (setting [15]) turned out to be 0.9. In assay [6] (setting [15]), the “AK-based Prestwick Library Screening Results, P. aeruginosa (fold increase in extracellular AK activity)” value was 1.2. Moreover, the “AK-based Prestwick Library Screening Results, A. baumannii (fold increase in extracellular AK activity)” value in assay [7] (setting [15]) worked out at 1.0.

`CN[C@@H]1[C@H](O)[C@H](NC)[C@H]2O[C@@]3(O)C(=O)C[C@@H](C)O[C@H]3O[C@@H]2[C@H]1O` [Spectinomycin dihydrochloride]: the fold induction at 50 µM in assay [1] (50 μM final drug concentration, planktonic, cutoff for positive-scoring molecules 3-fold increase, read-out: AK-based Prestwick Library Screening Results, E. coli (fold increase in extracellular AK activity)) was determined as 0.6; in assay [2] (50 μM final drug concentration, planktonic, cutoff for positive-scoring molecules 3-fold increase, read-out: AK-based Prestwick Library Screening Results, E. faecium (fold increase in extracellular AK activity)), 1; in assay [3] (50 μM final drug concentration, planktonic, cutoff for positive-scoring molecules 3-fold increase, read-out: AK-based Prestwick Library Screening Results, S. aureus (fold increase in extracellular AK activity)), 0.6; in assay [4] (50 μM final drug concentration, planktonic, cutoff for positive-scoring molecules 3-fold increase, read-out: AK-based Prestwick Library Screening Results, E. cloacae (fold increase in extracellular AK activity)), 0.6; in assay [5] (50 μM final drug concentration, planktonic, cutoff for positive-scoring molecules 3-fold increase, read-out: AK-based Prestwick Library Screening Results, K. pneumoniae (fold increase in extracellular AK activity)), 0.2; in assay [6] (50 μM final drug concentration, planktonic, cutoff for positive-scoring molecules 3-fold increase, read-out: AK-based Prestwick Library Screening Results, P. aeruginosa (fold increase in extracellular AK activity)), 0.5. In addition, in assay [7] (50 μM final drug concentration, planktonic, cutoff for positive-scoring molecules 3-fold increase, read-out: AK-based Prestwick Library Screening Results, A. baumannii (fold increase in extracellular AK activity)), the fold induction at 50 µM was 0.5.

As for `CC(=O)N1CCN(c2ccc(OCC3COC(Cn4ccnc4)(c4ccc(Cl)cc4Cl)O3)cc2)CC1` (stereo not drawn) [Ketoconazole], the fold induction at 50 µM in assay [1] (50 μM final drug concentration, planktonic, […], read-out: AK-based Prestwick Library Screening Results, E. coli (fold increase in extracellular AK activity)) is 1.3; in assay [2] (50 μM final drug concentration, planktonic, cutoff for positive 3-fold increase, read-out: AK-based Prestwick Library Screening Results, E. faecium (fold increase in extracellular AK activity)) it was 0.9; in assay [3] (50 μM final drug concentration, planktonic, cutoff for positive 3-fold increase, read-out: AK-based Prestwick Library Screening Results, S. aureus (fold increase in extracellular AK activity)), 1.2; in assay [4] (50 μM final drug concentration, planktonic, cutoff for positive 3-fold increase, read-out: AK-based Prestwick Library Screening Results, E. cloacae (fold increase in extracellular AK activity)), 1.5; in assay [5] (50 μM final drug concentration, planktonic, cutoff for positive 3-fold increase, read-out: AK-based Prestwick Library Screening Results, K. pneumoniae (fold increase in extracellular AK activity)) it was 1.2; in assay [6] (50 μM final drug concentration, planktonic, cutoff for positive 3-fold increase, read-out: AK-based Prestwick Library Screening Results, P. aeruginosa (fold increase in extracellular AK activity)), 1.1. Further, the fold induction at 50 µM in assay [7] (50 μM final drug concentration, planktonic, cutoff for positive 3-fold increase, read-out: AK-based Prestwick Library Screening Results, A. baumannii (fold increase in extracellular AK activity)) stood at 1.5.

As for `CCCCOc1cc(C(=O)NCCN(CC)CC)c2ccccc2n1` [Dibucaine], the fold induction at 50 µM came out at 1.3 in assay [1] (setting [8]); 0.9 in assay [2] (setting [9]); 1.3 in assay [3] (setting [10]); 1.7 in assay [4] (setting [11]); 1.1 in assay [5] (setting [12]); 1.1 in assay [6] (setting [13]). Moreover, the fold induction at 50 µM in assay [7] (setting [14]) came out at 1.3.
